Consider 2 compounds from US9205119B2, “Neuroprotective compositions and methods” (Rutgers, The State University of New Jersey, priority 2009, dated 2015).

Holding throughout (format): in vivo
For assay [1], the system named is pMCAO mice (permanent middle cerebral artery occlusion, focal cerebral ischemia). Briefly: TTC staining to determine infarct volume after pMCAO. The conditions noted are these: 30 mg/kg intraperitoneally 2 hr before and 6 hr after pMCAO, measured 24 hr post-pMCAO by TTC staining. On the procedure:
Human stroke typically involves disruption of blood flow to a specific region supplied often by the middle cerebral artery (MCA). The classical animal model of focal ischemia, MCA occlusion (MCAO), produces the problem of long-term vessel blockade, simulating what often occurs in human stroke. We have induced focal cerebral ischemia in mice by cauterizing the MCA. To evaluate the acute injury induced by MCAO, animals were euthanized at 24 h after MCAO, and the infarct volume was determined using 2,3,5-triphenyltetrazolium chloride (TTC) staining. (Rajanikant, G. K., et al., Stroke, 38:3023-31 (2007)). In brief, 24 hours after pMCAO, animals were deeply anesthetized with an injection of pentobarbital (70 mg/kg, i.p.) and subjected to intracardiac perfusion with 100 mL of isotonic saline delivered through an electronic pump at 100 mm Hg. The head was then removed with a small animal guillotine and the brain carefully dissected out en bloc. After a brief (<1 minute) period of cooling on a bed of ice, the brain was sliced coronally at 1-mm intervals. […] The infarct area was then quantified from the scanned images using the NIH Image J analysis software (version 1.38). […] Vehicle or various doses (3, 30, 50 or 90 mg/kg) of KB-3 or KB-3a were administered intraperitoneally 2 hr before and 6 hr after pMCAO and the infarct volume was measured at 24 hr post-pMCAO by TTC staining. […]

For assay [2], the system named is pMCAO mice (ipsilateral cortex degenerating neurons). In words: Fluoro Jade B staining to determine degenerating neurons after pMCAO. The conditions noted are these: 30 mg/kg 2 hr before and 6 hr after pMCAO, 24 h after MCAO. On the procedure: We used brain coronal sections […] for Fluoro Jade B staining to determine degenerating neurons, as previously described. (Rajanikant, G. K., et al., Stroke, 38:3023-31 (2007)). In brief, the brain sections on glass slides were dried overnight, immersed for 3 min in 100% ethanol, for 1 min in 70% ethanol, and for 1 min in distilled water, and then incubated in a solution containing 0.01% Fluoro-Jade B (Histo-Chem Inc., Jefferson, Ark.) and 0.1% acetic acid (1:10) for 30 min on a shaker. After three 10-min washes, the slides were coverslipped, and labeled sections were visualized with a confocal laser-scanning microscope.

Assay [3] has as its system pMCAO mice. Briefly: Neurological deficit scoring (18-point scale, Garcia) after pMCAO. The note with it: 30 mg/kg, 24 hr post-pMCAO, mean±SEM, vehicle 12.3±0.48, preoperative 17.5±0.29. On the procedure:
To determine whether KB-3a-induced reduction in infarct volume and neuronal degeneration could translate into functional recovery, neurological evaluations were performed right before the surgery and 24 hr following pMCAO. The neurobehavioral deficit scoring system consists of six tests as previously described in detail, which include: (1) spontaneous activity, (2) symmetry of four limb movement, (3) forepaw outstretching while held by tail, (4) climbing wall of wire cage, (5) reaction to touch on either side of trunk, and (6) response to vibrissae touch. (See Garcia, J. H., et al., Stroke, 26:627-34 (1995)). The neurological score given to each mouse at the completion of the evaluation is the summation of all six individual test scores. The minimum neurological score is 3 and the maximum is 18. Using the 18 point-based scale, the normal mean preoperative neurological score was 17.5±0.29.

Assay [4] relates to pMCAO mice. In words: Elevated body-swing test (EBST) after pMCAO. The note with it: intraperitoneally 2 hr pre- and 6 hr post-pMCAO, 24 hr after ischemia, vehicle 66.4±4.9, pre-operated 50.55±1.05. On the procedure: In addition, the elevated body-swing test (EBST), described in detail by Borlongan et al, was used by us to assess asymmetric motor behavior. (Borlongan, C. V. and Sanberg, P. R., J. Neurosci., 15:5372-8 (1995)). Mice were held by the base of the tail and elevated about 10 cm from the tabletop. The direction of body swing, defined as an upper body turn of >10° to either side, was recorded for 1 min during each of three trials. The number of left and right turns was counted, and the percentage of turns made to the side contralateral to the ipsilateral hemisphere (% right-biased swing) was determined. (Ishibashi, S., et al., Exp. Neurol., 207:302-13 (2007)). The EBST was used to detect asymmetry in motor behavior at 24 hr post-pMCAO.

As to `CC(C)=CCC/C(=C/CC/C(C)=C/CC/C(C)=C/Cc1cc(O)cc(C)c1O)C(=O)O` [KB-3, sargahydroquinoic acid], the “reduction in infarct volume compared with vehicle-treated group” value in assay [1] is listed as “approximately 48%”.
Take `CC(=O)Oc1cc(C)c(OC(C)=O)c(CC=C(C)CCC=C(C)CCC=C(CCC=C(C)C)C(=O)O)c1` [KB-3a, 1,4-diacetyl-sargahydroquinoic acid]: the “reduction of Fluoro-Jade B staining within the ipsilateral cortex compared to vehicle control” value in assay [2] was “approximately 50%”. The “reduction in infarct volume compared with vehicle-treated group” value in assay [1] is listed as “approximately 54%”. The “neurological score (18 point-based scale)” value in assay [3] is listed as 17±0.41. The “percent right-biased swing (EBST)” value in assay [4] was determined as 52.16±1.8%.
